Laboratory results as given in patent publication US20050208139A1 (Ascend Therapeutics, Inc., priority 2004, published 2005).

Experiment: Effects of pH on isomerization at 40° C. (Example 5)
Type: physicochemical
[1] = Initial E/Z 37/63, Buffer pH 2.2, Final pH 4, Day
[2] = Initial E/Z 37/63, Buffer pH 2.2, Final pH 4, Day 8
[3] = Initial E/Z 37/63, Buffer pH 2.2, Final pH 4, Mo. 1
[4] = Initial E/Z 37/63, Buffer pH 2.2, Final pH 4, Mo. 2
[5] = Initial E/Z 37/63, Buffer pH 2.2, Final pH 4, Mo. 3
[6] = Initial E/Z 37/63, Buffer pH 4, Final pH 6, Day
[7] = Initial E/Z 37/63, Buffer pH 4, Final pH 6, Day 8
[8] = Initial E/Z 37/63, Buffer pH 4, Final pH 6, Mo. 1
[9] = Initial E/Z 37/63, Buffer pH 4, Final pH 6, Mo. 2
[10] = Initial E/Z 37/63, Buffer pH 4, Final pH 6, Mo. 3
[11] = Initial E/Z 37/63, Buffer pH 4, Final pH 6, Time 0
[12] = Initial E/Z 37/63, Buffer pH 6, Final pH 7, Day
[13] = Initial E/Z 37/63, Buffer pH 6, Final pH 7, Day 8
[14] = Initial E/Z 37/63, Buffer pH 6, Final pH 7, Mo. 1
[15] = Initial E/Z 37/63, Buffer pH 6, Final pH 7, Mo. 2
[16] = Initial E/Z 37/63, Buffer pH 6, Final pH 7, Mo. 3
[17] = Initial E/Z 37/63, Buffer pH 6, Final pH 7, Time 0
[18] = Initial E/Z 37/63, Buffer pH 8, Final pH 9, Day
[19] = Initial E/Z 37/63, Buffer pH 8, Final pH 9, Day 8
[20] = Initial E/Z 37/63, Buffer pH 8, Final pH 9, Mo. 1
[21] = Initial E/Z 37/63, Buffer pH 8, Final pH 9, Mo. 2
[22] = Initial E/Z 37/63, Buffer pH 8, Final pH 9, Mo. 3
[23] = Initial E/Z 37/63, Buffer pH 8, Final pH 9, Time 0
[24] = Initial E/Z 37/63, Buffer pH 10, Final pH 12, Day
[25] = Initial E/Z 37/63, Buffer pH 10, Final pH 12, Day 8
[26] = Initial E/Z 37/63, Buffer pH 10, Final pH 12, Mo. 1
[27] = Initial E/Z 37/63, Buffer pH 10, Final pH 12, Mo. 2
[28] = Initial E/Z 37/63, Buffer pH 10, Final pH 12, Mo. 3
[29] = Initial E/Z 37/63, Buffer pH 10, Final pH 12, Time 0
[30] = Initial E/Z 100/0, Buffer pH 2.2, Final pH 4, Day

## CCC(=C(c1ccc(O)cc1)c1ccc(OCCN(C)C)cc1)c1ccccc1 [4-hydroxy tamoxifen, 1-[4-(2-N-dimethylaminoethoxy)phenyl]-1-(4-hydroxyphenyl)-2-phenylbut-1-ene]
  effect of pH on the equilibration process: Low and high pH speed the equilibration process
[1]
  % E: 48.5%
  % Z: 51.5%
[2]
  % E: 52.5%
  % Z: 47.5%
[3]
  % E: 48.2%
  % Z: 51.8%
[4]
  % E: 48.0%
  % Z: 52.0%
[5]
  % E: 48.0%
  % Z: 52.0%
Initial E/Z 37/63, Buffer pH 2.2, Final pH 4, Time 0
  % Z: 37.1%
[6]
  % E: 51.0%
  % Z: 49.0%
[7]
  % E: 56.8%
  % Z: 43.2%
[8]
  % E: 49.4%
  % Z: 50.6%
[9]
  % E: 49.0%
  % Z: 51.0%
[10]
  % E: 48.5%
  % Z: 51.5%
[11]
  % E: 62.9%
  % Z: 37.1%
[12]
  % E: 58.0%
  % Z: 42.0%
[13]
  % E: 61.1%
  % Z: 38.9%
[14]
  % E: 55.8%
  % Z: 44.2%
[15]
  % E: 52.0%
  % Z: 48.0%
[16]
  % E: 50.4%
  % Z: 49.6%
[17]
  % E: 62.5%
  % Z: 37.5%
[18]
  % E: 56.9%
  % Z: 43.1%
[19]
  % E: 60.6%
  % Z: 39.4%
[20]
  % E: 54.2%
  % Z: 45.8%
[21]
  % E: 50.8%
  % Z: 49.2%
[22]
  % E: 49.9%
  % Z: 50.1%
[23]
  % E: 62.7%
  % Z: 37.3%
[24]
  % E: 49.0%
  % Z: 51.0%
[25]
  % E: 48.5%
  % Z: 51.5%
[26]
  % E: 49.0%
  % Z: 51.0%
[27]
  % E: 48.8%
  % Z: 51.2%
[28]
  % E: 49.0%
  % Z: 51.0%
[29]
  % E: 63.4%
  % Z: 36.6%
[30]
  % E: 45.9%
  % Z: 54.1%
Initial E/Z 100/0, Buffer pH 2.2, Final pH 4, Day 8
  % E: 29.0%
